Measurements as given in patent publication US12275733B2, “Substituted pyrido[3,4-b]indoles for the treatment of cartilage disorders” (Sanofi, priority 2016, dated 2025).

Tested on: ATDC5 cells
Assay: Chondrogenesis activity assay in ATDC5 cells (collagen type II induction, immunofluorescence)
Assay type: cell-based, mouse
Details: for EC50: collagen type II induction in ATDC5 cells, concentration reaching 50% of maximum induction; for Emax: maximum percent induction of collagen type II relative to internal reference compound at 10 μM, ATDC5 cells
Description: A) Chondrogenesis Activity Assay in ATDC5 Cells
The chondrogenic potential of the compounds of the invention was determined using clonal mouse chondrogenic ATDC5 cells (T. Atsumi et al., Cell Differ. Dev. 1990, 30, 109-116). ATDC5 cells are derived from mouse embryonic AT805 teratocarcinoma cells and are used frequently to study the multistep chondrogenic differentiation process from precursor cells into chondrocytes (C. Shukunami et al., Exp. Cell Res. 1998, 241, 1-11; H. Aklyami et al., J. Bone Miner. Res. 1996, 11, 22-28; H. Akiyami et al., Biochem. Biophys. Res. Commun. 1997, 235, 142-147; C. Shukunami et al., J. Cell Biol. 1996, 133, 457-468; C. Shukunami et al., J. Bone Miner. Res. 1997, 12, 1174-1188). Undifferentiated ATDC5 cells grow in vitro until confluence, showing a fibroblast-like morphology. In the presence of insulin, cells undergo transient condensation and form numerous nodular structures (cartilage nodules). The cartilagenous nature of these nodules was shown by Alcian Blue staining as evidence of the production of proteoglycan (aggrecan) and collagen type II expression (by expression analysis), both molecular markers of chondrocytes (C. Shukunami et al., J. Cell Biol. 1996, 133, 457-468).
Chondrogenic differentiation of ATDC5 cells into chondrocytes by the compounds of the invention was determined by measuring the induction of type II collagen protein as a marker of chondrocytes, a structural component of the extracellular matrix which constitutes more than 80% of cartilage mass (D. R. Eyre, Clin. Orthop. Relat. Res. 2004, 427 Suppl, S118-S122). ATDC5 cells were obtained from RIKEN and cultured as monolayer in basal culture medium (Dulbecco's Modified Eagle Medium/Nutrient Mixture F-12 (DMEM/F12, Invitrogen, #31331-093) supplemented with 10 μg/ml Transferrin (Roche, #10652 202001), 3×10E−8 M sodium seienite (Sigma, #S-5261) and 5% Fetal Calf Serum (FCS Gold, PAA, #A15-251)), at 37° C., and 5% CO2 in plastic flasks of 75 cm^2 or 300 cm^2 subconfluently for propagation. ATDC5 cells were harvested and resuspended in differentiation culture medium that consisted of basal culture medium complemented with 10 μg/ml insulin (Sigma, #19278), to initiate chondrogenic differentiation. For studying the effect of test compounds, the ATDC5 cells were plated in 96-well plates (3.0×10E4 cells per well in 200 μl of differentiation culture medium). Test compounds dissolved in DMSO were added to yield increasing compound concentrations, typically from 40 nM to 10 μM, and a final DMSO concentration of 0.1%. On each 96-well plate, control wells containing no test compound but the same concentration of DMSO, i.e. untreated cells, were included and used as reference for the determination of the effect of the test compounds on the cells, and wells containing an internal reference compound at a concentration of 10 μM were included and used as positive control and for standardizing the results. Cells in the wells were incubated for 4 days at 37° C., and 5% CO2, followed by quantification of intracellular collagen type II.
Quantification of collagen type II in the ATDC5-cells was done by immunofluorescence staining of collagen type II, and fluorescence intensity was measured using a cellular high content imaging system (ImageXpress, Molecular Device). For immunofluorescence staining of intracellular collagen, medium was removed after compound incubation and cells were fixed with 200 μl/well methanol/water (95%/5%). Cells were permeabilized in 200 μl/well phosphate-buffered saline (PBS) containing 0.2% Triton X100 for 15 min and, after removal of the solution, blocked for 30 min with 200 μl/well PBS/0.2% Triton X100 containing 1% bovine serum albumin (BSA) to avoid unspecific binding. After the blocking step, the solution was removed and collagen type II staining solution was added. […]

SMILES	EC50 (Mus musculus)	Emax (Mus musculus)	EC50
Cc1ccc(-c2cc(Cl)cc3c4ccncc4n(CC(F)(F)F)c23)cn1 [Example 68, 6-Chloro-8-(6-methyl-pyridin-3-yl)-9-(2,2,2-trifluoro-ethyl)-9H-pyrido[3,4-b]indole]	7600 nM	50 to 80%	
COCCn1cc(-c2cc(Cl)cc3c4ccncc4n(CC(F)(F)F)c23)cn1 [Example 169, 6-Chloro-8-[1-(2-methoxy-ethyl)-1H-pyrazol-4-yl]-9-(2,2,2-trifluoro-ethyl)-9H-pyrido[3,4-b]indole]	1300 nM		1100 nM
Cc1nccc2c1[nH]c1c(-c3ccc(N4CCCCC4)nc3)cc(Cl)cc12 [Example 101, 6-Chloro-1-methyl-8-(3,4,5,6-tetrahydro-2H-[1,2′]bipyridinyl-5′-yl)-9H-pyrido[3,4-b]indole]	8200 nM	20 to 50%	
COc1ccc(-c2cc(Cl)cc3c4ccncc4n(CC(F)(F)F)c23)cn1 [Example 62, 6-Chloro-8-(6-methoxy-pyridin-3-yl)-9-(2,2,2-trifluoro-ethyl)-9H-pyrido[3,4-b]indole]	1200 nM	> 80%	
Cc1nccc2c1[nH]c1c(-c3cccc(OCc4ncccn4)c3)cc(Cl)cc12 [Example 267, 6-Chloro-1-methyl-8-[3-(pyrimidin-2-ylmethoxy)-phenyl]-9H-pyrido[3,4-b]indole]	> 3300 nM	50 to 80%	
FC(F)(F)Cn1c2cnccc2c2cc(Cl)cc(-c3ccc(C(F)(F)F)nc3)c21 [Example 88, 6-Chloro-9-(2,2,2-trifluoro-ethyl)-8-(6-trifluoromethyl-pyridin-3-yl)-9H-pyrido[3,4-b]indole]	1700 nM	< 20%	
Cc1nccc2c1[nH]c1c(-c3ccc4c(c3)CCO4)cc(Cl)cc12 [Example 179, 6-Chloro-8-(2,3-dihydro-benzofuran-5-yl)-1-methyl-9H-pyrido[3,4-b]indole]	> 10000 nM	> 80%	
Cc1nccc2c1[nH]c1c(-c3ccc(Cl)c(C#N)c3Cl)cc(Cl)cc12 [Example 158]	1900 nM	> 80%	
Cc1cc(-c2cc(Cl)cc3c4ccncc4n(CC(F)(F)F)c23)n(C)n1 [Example 140, 6-Chloro-8-(2,5-dimethyl-2H-pyrazol-3-yl)-9-(2,2,2-trifluoro-ethyl)-9H-pyrido[3,4-b]indole]	910 nM	20 to 50%	
COc1ncc(-c2cc(Cl)cc3c4ccncc4n(CC(F)(F)F)c23)cc1F [Example 85, 6-Chloro-8-(5-fluoro-6-methoxy-pyridin-3-yl)-9-(2,2,2-trifluoro-ethyl)-9H-pyrido[3,4-b]indole]	> 10000 nM	20 to 50%	
Cc1nccc2c1[nH]c1c(-c3ccnc(N)c3)cc(Cl)cc12 [Example 215, 4-(6-Chloro-1-methyl-9H-pyrido[3,4-b]indol-8-yl)-pyridin-2-ylamine]	230 nM	> 80%	
FC(F)(F)Cn1c2cnccc2c2cc(Cl)cc(-c3ccc(NC4CCCCC4)nc3)c21 [Example 80, (5-[6-Chloro-9-(2,2,2-trifluoro-ethyl)-9H-pyrido[3,4-b]indol-8-yl]-pyridin-2-yl)-cyclohexyl-amine]	1200 nM	20 to 50%	
Cc1nccc2c1[nH]c1c(-c3ccc(OCC4COc5ccccc5O4)cc3)cc(Cl)cc12 (stereo not shown) [Example 278, 6-Chloro-8-[4-(2,3-dihydro-benzo[1,4]dioxin-2-ylmethoxy)-phenyl]-1-methyl-9H-pyrido[3,4-b]indole]	> 3300 nM	20 to 50%	
Cn1cc(-c2cc(Cl)cc3c4ccncc4n(CC4CC4)c23)cn1 [Example 287, 6-Chloro-9-cyclopropylmethyl-8-(1-methyl-1H-pyrazol-4-yl)-9H-pyrido[3,4-b]indole]	230 nM	50 to 80%	
CCn1c2c(-c3cccc(C(N)=O)c3)cc(Cl)cc2c2ccnc(C)c21 [Example 220, 3-(6-Chloro-9-ethyl-1-methyl-9H-pyrido[3,4-b]indol-8-yl)-benzamide]	> 10000 nM	20 to 50%	
Cc1nccc2c1[nH]c1c(-c3ccc([S+](C)[O-])cc3)cc(Cl)cc12 (stereo not shown) [Example 243, 6-Chloro-8-(4-methanesulfinyl-phenyl)-1-methyl-9H-pyrido[3,4-b]indole]	660 nM	> 80%	
FC(F)(F)Cn1c2cnccc2c2cc(Cl)cc(-c3csc(Cl)c3)c21 [Example 76, 6-Chloro-8-(5-chloro-thiophen-3-yl)-9-(2,2,2-trifluoro-ethyl)-9H-pyrido[3,4-b]indole]		20 to 50%	
Cc1nccc2c1[nH]c1c(-c3ccc(C#N)nc3)cc(Cl)cc12 [Example 100, 5-(6-Chloro-1-methyl-9H-pyrido[3,4-b]indol-8-yl)-pyridine-2-carbonitrile]	1000 nM	< 20%	
Cc1nccc2c1[nH]c1c(-c3ccc(N4CCOCC4)nc3)cc(Cl)cc12 [Example 96, 6-Chloro-1-methyl-8-(6-morpholin-4-yl-pyridin-3-yl)-9H-pyrido[3,4-b]indole]	850 nM	50 to 80%	
Cc1cc2c([nH]c3c(-c4ccc(OCCn5cccn5)cc4)cc(Br)cc32)c(C)n1 [Example 16, 6-Bromo-1,3-dimethyl-8-[4-(2-pyrazol-1-yl-ethoxy)-phenyl]-9H-pyrido[3,4-b]indole]	2800 nM	50 to 80%	
COc1ccc(-c2cc(Cl)cc3c4ccncc4n(C4CC4)c23)cc1 [Example 289, 6-Chloro-9-cyclopropyl-8-(4-methoxy-phenyl)-9H-pyrido[3,4-b]indole]	750 nM	> 80%	
CCc1nccc2c1[nH]c1c(-c3ccc(OC)cc3)cc(Cl)cc12 [Example 153, 6-Chloro-1-ethyl-8-(4-methoxy-phenyl)-9H-pyrido[3,4-b]indole]	4500 nM	50 to 80%	
CCn1c2c(-c3cnn(Cc4ccc(C)nc4C)c3)cc(Cl)cc2c2ccnc(C)c21 [Example 121, 6-Chloro-8-[1-(2,6-dimethyl-pyridin-3-ylmethyl)-1H-pyrazol-4-yl]-9-ethyl-1-methyl-9H-pyrido[3,4-b]indole]	590 nM	> 80%	
Cc1nccc2c1[nH]c1c(-c3cccc(OCc4ccc5ccccc5n4)c3)cc(Cl)cc12 [Example 260, 6-Chloro-1-methyl-8-[3-(quinolin-2-ylmethoxy)-phenyl]-9H-pyrido[3,4-b]indole]	> 1100 nM	< 20%	
CCn1c2c(-c3ccc(C(O)c4ccccc4)cc3)cc(Cl)cc2c2ccnc(C)c21 (stereo not shown) [Example 238, [4-(6-Chloro-9-ethyl-1-methyl-9H-pyrido[3,4-b]indol-8-yl)-phenyl]-phenyl-methanol]	1400 nM	> 80%	
Cc1nccc2c1[nH]c1c(-c3ccc(OC(F)(F)F)cc3)cc(Cl)cc12 [Example 262]	2300 nM	> 80%	
COc1ccc(-c2cc(Cl)cc3c2[nH]c2c(C)nccc23)c(OC)c1OC [Example 178, 6-Chloro-1-methyl-8-(2,3,4-trimethoxy-phenyl)-9H-pyrido[3,4-b]indole]	> 10000 nM	20 to 50%	
COc1ccc(-c2cc(Cl)cc3c2[nH]c2c(C)nccc23)c(N)n1 [Example 113, 3-(6-Chloro-1-methyl-9H-pyrido[3,4-b]indol-8-yl)-6-methoxy-pyridin-2-ylamine]	780 nM	> 80%	
